Laboratory results: ChEMBL document CHEMBL3769398 (J Med Chem, 2016)

Experiments:
Histone deacetylase 8 [1] = biological target: T1, Histone deacetylase 8 (Homo sapiens, UniProt Q9BY41); assay: Inhibition of full length human recombinant KDAC8 using fluorophore-conjugated substrate measured as fluorigenic release of 7-amino-4-methylcoumarin by microtiter plate reader analysis
T1 sequence (Q9BY41 whole entry): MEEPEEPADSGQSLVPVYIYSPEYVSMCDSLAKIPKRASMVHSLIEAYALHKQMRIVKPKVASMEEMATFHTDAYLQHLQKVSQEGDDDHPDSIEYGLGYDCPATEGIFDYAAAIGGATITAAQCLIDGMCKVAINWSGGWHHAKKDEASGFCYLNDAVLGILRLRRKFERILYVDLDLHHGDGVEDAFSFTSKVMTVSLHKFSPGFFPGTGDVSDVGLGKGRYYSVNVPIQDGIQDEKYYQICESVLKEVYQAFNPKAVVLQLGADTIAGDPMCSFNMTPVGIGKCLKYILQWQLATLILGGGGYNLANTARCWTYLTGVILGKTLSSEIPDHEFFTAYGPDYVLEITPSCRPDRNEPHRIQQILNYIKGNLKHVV

Histone deacetylase 3 [2] = biological target: T2, Histone deacetylase 3 (Homo sapiens, UniProt O15379); assay: Inhibition of recombinant human KDAC3 using FITC-p53 acetylated peptide substrate incubated for 60 mins by microfluidic chip-based assay
T2 sequence (O15379 whole entry): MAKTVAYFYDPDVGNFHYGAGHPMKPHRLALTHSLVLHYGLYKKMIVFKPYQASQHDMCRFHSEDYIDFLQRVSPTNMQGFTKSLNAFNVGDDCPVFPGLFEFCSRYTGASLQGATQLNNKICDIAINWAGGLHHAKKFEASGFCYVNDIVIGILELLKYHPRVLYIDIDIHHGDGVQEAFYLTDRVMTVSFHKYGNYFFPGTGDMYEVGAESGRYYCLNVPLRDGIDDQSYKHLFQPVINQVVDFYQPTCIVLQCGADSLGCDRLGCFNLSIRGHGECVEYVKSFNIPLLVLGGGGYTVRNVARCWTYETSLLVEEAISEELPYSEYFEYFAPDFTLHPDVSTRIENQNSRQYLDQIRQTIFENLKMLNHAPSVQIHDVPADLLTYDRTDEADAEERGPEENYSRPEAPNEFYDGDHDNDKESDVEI

Histone deacetylase 1 [3] = biological target: T3, Histone deacetylase 1 (Homo sapiens, UniProt Q13547); assay: Inhibition of recombinant human KDAC1 using FAM-labelled substrate A incubated for 60 mins by microfluidic chip-based assay
T3 sequence (Q13547 whole entry): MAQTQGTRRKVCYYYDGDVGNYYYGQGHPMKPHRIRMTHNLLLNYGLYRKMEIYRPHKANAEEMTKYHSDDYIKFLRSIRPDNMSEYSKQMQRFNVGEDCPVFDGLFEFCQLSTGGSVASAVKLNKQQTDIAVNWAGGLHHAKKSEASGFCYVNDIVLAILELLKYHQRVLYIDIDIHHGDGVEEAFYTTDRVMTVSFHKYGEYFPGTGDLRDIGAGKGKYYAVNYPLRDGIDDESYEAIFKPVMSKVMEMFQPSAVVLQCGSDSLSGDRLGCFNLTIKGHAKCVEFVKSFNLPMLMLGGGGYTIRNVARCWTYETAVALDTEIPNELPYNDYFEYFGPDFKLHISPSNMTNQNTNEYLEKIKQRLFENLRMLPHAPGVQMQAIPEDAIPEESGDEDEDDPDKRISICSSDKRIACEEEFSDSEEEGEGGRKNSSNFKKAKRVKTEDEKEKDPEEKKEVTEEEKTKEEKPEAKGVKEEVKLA

Histone deacetylase 8 [4] = biological target: T1, Histone deacetylase 8; assay: Inhibition of recombinant human KDAC8 using FAM-labelled substrate B incubated for 60 mins by microfluidic chip-based assay
[5] = biological target: T4, Protein deacetylase HDAC6 (Homo sapiens, UniProt Q9UBN7); assay: Inhibition of human KDAC6 by fluorescence assay
T4 sequence (Q9UBN7 whole entry): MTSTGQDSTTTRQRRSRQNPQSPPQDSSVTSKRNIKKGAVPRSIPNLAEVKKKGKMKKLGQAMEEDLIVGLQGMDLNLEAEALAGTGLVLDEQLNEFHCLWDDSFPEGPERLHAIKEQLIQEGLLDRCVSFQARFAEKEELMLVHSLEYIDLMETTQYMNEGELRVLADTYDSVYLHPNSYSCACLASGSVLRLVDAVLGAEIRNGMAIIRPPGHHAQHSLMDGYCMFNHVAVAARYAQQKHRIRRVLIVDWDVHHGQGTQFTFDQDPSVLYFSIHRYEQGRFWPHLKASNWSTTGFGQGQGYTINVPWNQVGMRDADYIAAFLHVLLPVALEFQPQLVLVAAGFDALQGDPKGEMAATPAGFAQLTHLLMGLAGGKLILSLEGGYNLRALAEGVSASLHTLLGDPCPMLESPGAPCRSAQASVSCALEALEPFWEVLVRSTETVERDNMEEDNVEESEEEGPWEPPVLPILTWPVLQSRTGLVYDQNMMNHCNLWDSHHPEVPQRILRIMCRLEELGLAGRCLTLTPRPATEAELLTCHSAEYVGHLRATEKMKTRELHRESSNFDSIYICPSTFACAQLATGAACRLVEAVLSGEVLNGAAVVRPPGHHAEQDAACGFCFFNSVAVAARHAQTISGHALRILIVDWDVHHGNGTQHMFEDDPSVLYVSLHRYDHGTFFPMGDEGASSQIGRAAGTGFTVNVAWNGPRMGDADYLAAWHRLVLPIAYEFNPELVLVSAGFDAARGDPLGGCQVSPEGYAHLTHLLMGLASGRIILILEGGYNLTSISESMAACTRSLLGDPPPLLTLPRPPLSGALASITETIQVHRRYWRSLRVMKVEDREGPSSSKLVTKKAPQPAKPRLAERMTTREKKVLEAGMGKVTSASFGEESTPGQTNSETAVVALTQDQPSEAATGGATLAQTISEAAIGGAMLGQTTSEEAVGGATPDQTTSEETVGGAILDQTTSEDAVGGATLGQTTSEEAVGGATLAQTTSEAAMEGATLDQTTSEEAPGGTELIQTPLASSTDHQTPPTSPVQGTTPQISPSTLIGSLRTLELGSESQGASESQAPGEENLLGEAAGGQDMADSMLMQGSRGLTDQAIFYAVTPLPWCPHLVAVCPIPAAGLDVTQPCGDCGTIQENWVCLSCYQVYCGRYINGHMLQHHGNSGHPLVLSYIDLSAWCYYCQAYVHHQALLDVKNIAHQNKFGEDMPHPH

Histone deacetylase 8 [6] = biological target: T1, Histone deacetylase 8; assay: Inhibition of human KDAC8 by fluorescence assay
[7] = biological target: T4, Protein deacetylase HDAC6; assay: Inhibition of human KDAC6
Histone deacetylase 1 [8] = biological target: T3, Histone deacetylase 1; assay: Inhibition of human KDAC1
Histone deacetylase 8 [9] = biological target: T1, Histone deacetylase 8; assay: Inhibition of human KDAC8
Histone deacetylase 3 [10] = biological target: T2, Histone deacetylase 3; assay: Inhibition of human KDAC3

## CCCCCCCC(=O)SCC/C=C/[C@@H]1CC(=O)NCc2nc(cs2)C2=N[C@@](C)(CS2)C(=O)N[C@@H](C(C)C)C(=O)O1 [LARGAZOLE]
Histone deacetylase 8 [1]
  IC50: > 30 µM

## CC(C)[C@@H]1NC(=O)[C@H]2CCCN2C(=O)[C@@H]2CCCN2C(=O)C[C@H](C(=O)NCCCC(=O)NO)NC1=O
Histone deacetylase 3 [2]
  IC50: > 30 µM
Histone deacetylase 1 [3]
  IC50: > 30 µM
Histone deacetylase 8 [4]
  IC50: > 30 µM

## CC(C)[C@@H]1NC(=O)[C@@H]2CCCN2C(=O)[C@H]2CCCN2C(=O)C[C@@H](C(=O)NCCCC(=O)NO)NC1=O
Histone deacetylase 3 [2]
  IC50: 13.7 µM
Histone deacetylase 1 [3]
  IC50: 25.1 µM
Histone deacetylase 8 [4]
  IC50: > 30 µM

## Nc1ccccc1NC(=O)c1ccc(-c2cn(CCc3ccsc3)nn2)cc1
[5]
  IC50: > 30 µM
Histone deacetylase 8 [6]
  IC50: > 30 µM

## CC(=O)SCC/C=C/[C@@H]1CC(=O)NCc2ccc(cc2)C2=N[C@@](C)(CS2)C(=O)N[C@@H](C(C)C)C(=O)O1
[7]
  IC50: 1.61 µM
Histone deacetylase 1 [8]
  IC50: 3.48 µM
Histone deacetylase 8 [9]
  IC50: > 30 µM
Histone deacetylase 3 [10]
  IC50: 0.47 µM
